Data: patent publication US6559167B1, “Prodrugs of proton pump inhibitors” (Regents of the University of California, priority 1998, dated 2003)
“And” between values parts separate entries of the source, which are not always exact repeats. Equal entries are not always repeated.

Tests used:
[1] = test system: gastric acid secretion of the conscious male rat; test: Inhibitory effect on gastric acid secretion of the conscious male rat at timed intervals after oral administration; assay type: in vivo; set-up: inhibition of gastric acid secretion: concentration or dose not given beside the values; settings: for % inhibition of gastric acid secretion: male rat; for inhibition of gastric acid secretion: after 5 hr of oral administration
[2] = Relative plasma concentration of OMEPRAZOLE in male rat after oral administration; settings: male rat;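 further: Sprague-Dawley rats fasted one day with water available, dosed orally with prodrug compounds, OMEPRAZOLE quantified by HPLC in plasma from serial blood draws, control given OMEPRAZOLE itself orally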
Method: Male adult rats of the Sprague-Dawley strain were used for determining the concentration of OMEPRAZOLE in the plasma. All rats were derived of food but not of water for one day. Examples of compounds of the invention (2 mg/kg of rat weight) were orally administrated to male rats (weighing 250 g to 270 g) and blood samples (0.3 ml) were taken at timed intervals. Blood samples were centrifuged and plasma was taken out. Plasma was extracted with 0.5 ml of dichloromethane. Dichloromethane layer was evaporated by nitrogen/air blowing. The residual materials were dissolved in 0.5 ml of 40% acetonitrile in 10 mM phosphate buffer (pH 7.4). Amounts of OMEPRAZOLE were determined by HPLC analysis. As a control, OMEPRAZOLE (4 mg/kg of rat weight) was orally administrated.

[3] = Chemical stability: hydrolysis half-life in buffer solution at various pH; assay type: physicochemical
Text: By way of concrete examples, the following tests and results are described. […] This is consistent with the knowledge that the compounds obtained by hydrolysis e. g. LANSOPRAZOLE, OMEPRAZOLE, PANTOPRAZOLE and RABEPRAZOLE are well known H,K-ATPase inhibitors. […] Another good example is 2-(2-carbamoylmethoxy-4-{2-[4-(3-methoxypropoxy)-3-methyl pyridin-2-yl methylsulfinyl]benzimidazole-1-sulfonyl}phenoxy)acetamide. The half life of this compound dependes on pH. […] Based on these measured characteristics the compound 2-(2-carbamoylmethoxy-4-{2-[4-(3-methoxypropoxy)-3-methyl pyridin-2-yl methylsulfinyl]benzimidazole-1-sulfonyl}phenoxy)acetamide is expected to be well absorbed, and slowly release the parent RABEPRAZOLE in the blood, resulting in long-lasting in vivo activity. This compound can also be administered intravenously in an aqueous solution at pH 7.4 which solution may include 2-hydroxypropyl-β-cyclodextrin.
The chemical stability of the compounds of the invention has been followed kinetically at low concentration at 37° C. in a buffer solution composed of 0.2M NaCl, 50 mM sodium phosphate, pH 7.4, 2% bovine albumin serum, 5-10% methanol.
The hydrolysis of 2-(2-carbamoylmethoxy-4-{2-[4-(3-methoxy-propoxy)-3-methyl-pyridin-2-ylmethanesulfinyl]-benzimidazole-1-sulfonyl}-phenoxy)-acetamide was measured at various pH.

[4] = test system: gastric acid secretion (histamine-stimulated acid output), pylorus-ligated male rats; test: Initial inhibition of gastric acid secretion after intraduodenal administration to pylorus-ligated rats; assay type: in vivo; settings: 10 μmole/kg, after pylorus ligation, histamine 30 mg/kg s.c., acid output over four hours, rat
Method: Histamine (30 mg/kg) was subcutaneously injected to stimulate acid production. The abdomen was surgically closed immediately. Four hours later the esophagus was ligated and the stomach was removed. Acid output was measured as described above.

[5] = between 4-7 hr after oral administration
[6] = between 5-8 hours after oral administration, 10 μmole/kg, histamine and carbachol stimulated
[7] = 20 min after oral administration, examples 2 mg/kg, OMEPRAZOLE 4 mg/kg
[8] = 40 min after oral administration, examples 2 mg/kg, OMEPRAZOLE 4 mg/kg
[9] = 60 min after oral administration, examples 2 mg/kg, OMEPRAZOLE 4 mg/kg
[10] = 80 min after oral administration, examples 2 mg/kg, OMEPRAZOLE 4 mg/kg
[11] = 100 min after oral administration, examples 2 mg/kg, OMEPRAZOLE 4 mg/kg
[12] = 120 min after oral administration, examples 2 mg/kg, OMEPRAZOLE 4 mg/kg
[13] = 140 min after oral administration, 2 mg/kg
[14] = 160 min after oral administration, 2 mg/kg
[15] = 180 min after oral administration, 2 mg/kg
[16] = 210 min after oral administration, 2 mg/kg
[17] = 240 min after oral administration, 2 mg/kg
[18] = 270 min after oral administration, 2 mg/kg
[19] = 300 min after oral administration, 2 mg/kg
[20] = 330 min after oral administration, 2 mg/kg
[21] = 360 min after oral administration, 2 mg/kg
[22] = between 5.5-8.5 hours after oral administration, 10 μmole/kg, histamine and carbachol stimulated

With `Cc1c(OCC(F)(F)F)ccnc1C[S+]([O-])c1nc2ccccc2n1S(=O)(=O)c1ccc(OCC(N)=O)c(OCC(N)=O)c1` (stereo not shown) [Example 79, 2-(2-Carbamoylmethoxy-4-{2-[3-methyl-4-(2,2,2-trifluoro-ethoxy)-pyridin-2-ylmethanesulfinyl]-benzimidazole-1-sulfonyl}-phenoxy)-acetamide] the “% inhibition of gastric acid secretion” value [1, 5] was 36.8%.

In the case of “2-{4-[(5-methoxy-2-{[(3.5-dimethyl-4-methoxy-2-pyridyl)methyl]sulfinyl}benzimidazol-1-yl)sulfonyl]phenoxy}acetamide and 2-{4-[(6-methoxy-2-{[(3,5-dimethyl-4-methoxy-2-pyridyl)methyl]sulfinyl}benzimidazol-1-yl)sulfonyl]phenoxy}acetamide [Example 53]”, the “% inhibition of gastric acid secretion” value [1, 6] is reported as 65.2 ± 11.3%.

For “N-[4-[[5-methoxy-2-[[(3,5-dimethyl-4-methoxy-2-pyridyl)methyl]sulfinyl]benzimidazol-1-yl]sulfonyl]phenyl]urea and N-[4-[[6-methoxy-2-[[(3,5-dimethyl-4-methoxy-2-pyridyl)methyl]sulfinyl]benzimidazol-1-yl]sulfonyl]phenyl]urea [Example 29]”, the “Relative concentration of OMEPRAZOLE released in the plasma” value (“Relative concentration” below) [2, 7] was 4.5 arbitrary unit, the “Relative concentration” value [2, 8] was 14 arbitrary unit and the “Relative concentration” value [2, 9] was 8.5 arbitrary unit. For the same compound, the “Relative concentration” value [2, 10] was 3.5 arbitrary unit, the “Relative concentration” value [2, 11] was 2.5 arbitrary unit and the “Relative concentration” value [2, 12] was 1.875 arbitrary unit. The “Relative concentration” value [2, 13] was 0.625 arbitrary unit, the “Relative concentration” value [2, 14] was 0.6 arbitrary unit and the “Relative concentration” value [2, 15] was 0.6 arbitrary unit. The “Relative concentration” value [2, 16] was 1.5 arbitrary unit, the “Relative concentration” value [2, 17] was 0.5 arbitrary unit and the “Relative concentration” value [2, 18] was 0.5 arbitrary unit. For the same compound, the “Relative concentration” value [2, 19] was 0.2 arbitrary unit, the “Relative concentration” value [2, 20] was 0.1 arbitrary unit and the “Relative concentration” value [2, 21] was 0.05 arbitrary unit.

With “N-(carbamoylmethyl)-2-{4-[(5-methoxy-2-{[(3,5-dimethyl-4-methoxy-2-pyridyl)methyl]sulfinyl}benzimidazol-1-yl)sulfonyl]phenoxy}acetamide and N-(carbamoylmethyl)-2-{4-[(6-methoxy-2-{[(3.5-dimethyl-4-methoxy-2-pyridyl)methyl]sulfinyl}benzimidazol-1-yl)sulfonyl]phenoxy}acetamide [Example 62]” the “% inhibition of gastric acid secretion” value [1, 22] was 14.1 ± 7.5%.

`COCCCOc1ccnc(C[S+]([O-])c2nc3ccccc3n2S(=O)(=O)c2ccc(OCC(N)=O)c(OCC(N)=O)c2)c1C` (stereo not shown) [Example 77, 2-(2-carbamoylmethoxy-4-{2-[4-(3-methoxypropoxy)-3-methylpyridin-2-ylmethylsulfinyl]benzimidazole-1-sulfonyl}phenoxy)acetamide] gave a half-life of hydrolysis ([3]; 2 mg/mL, pH 7.4) of 3.73 h, a half-life ([3]; bovine, pH 7.4, half-life of hydrolysis) of about 22.2 h and a half-life of hydrolysis ([3]; buffer, pH 2) of 1.8 h. It also gave a half-life ([3]; buffer, pH 2, half-life of hydrolysis) of about 1.8 h, a half-life of hydrolysis ([3]; buffer, pH 8) of 10.7 h and a half-life ([3]; buffer, pH 8, half-life of hydrolysis) of about 10.7 h. For the same compound, the half-life at 2 mg/mL ([3]; pH 7.4, half-life of hydrolysis) was about 3.7 h, the “inhibition of gastric acid secretion” value [1] was 56% and the “% inhibition of gastric acid secretion” value [1, 5] was 56%.

With “2-{2-carbamoylmethoxy-4-[5-methoxy-2-((4-methoxy-3,5-dimethyl pyridin-2-yl)methylsulfinyl)benzimidazole-1-sulfonyl]phenoxy}acetamide and 2-{2-carbamoylmethoxy-4-[6-methoxy-2-((4-methoxy-3,5-dimethyl pyridin-2-yl)methylsulfinyl)benzimidazole-1-sulfonyl]phenoxy}acetamide [Example 74]” the “gastric acid secretion after administration to male rat (in words)” value ([1]; administrated to male rat) was “significantly and continuously inhibited”, the “% inhibition of gastric acid secretion” value [1, 22] was 49.7 ± 3.7% and the “% inhibition of gastric acid secretion” value ([1]; between 5.5-8.5 hours after oral administration, 10 μmole/kg, histamine and carbachol stimulated, listed as 2-{2-carbamoylmethoxy-4-[5-methoxy-2-(4-methoxy-3,5-dimethyl pyridin-2-yl)metha) was 49.7%. For the same compound, the “inhibition of histamine-stimulated acid output” value [4] was 64.2%.

In the case of `Cc1c(OCC(F)(F)F)ccnc1C[S+]([O-])c1nc2ccccc2[nH]1` (stereo not shown) [LANSOPRAZOLE, reference compound], the “% inhibition of gastric acid secretion” value [1, 5] is reported as 29% and the “% inhibition of gastric acid secretion” value ([1]; between 4-7 hr after oral administration, listed as LANOPRAZOLE) is reported as 29%.

For “1-(Pyridine-3-sulfonyl)-5-methoxy-2-[[(3,5-dimethyl-4-methoxy-2-pyridylmethyl]sulfinyl]-1H-benzimidazole and 1-(pyridine-3-sulfonyl-6-methoxy-2-[[(3,5-dimethyl-4-methoxy-2-pyridyl)methyl]sulfinyl]-1H-benzimidazole [Example 25]”, the “% inhibition of gastric acid secretion” value [1, 6] was 61% and 61.3 ± 16.1%.

With `COCCCOc1ccnc(C[S+]([O-])c2nc3ccccc3[nH]2)c1C` (stereo not shown) [RABEPRAZOLE, reference compound] the “inhibition of gastric acid secretion” value [1] was 32% and the “% inhibition of gastric acid secretion” value [1, 5] was 32%.

In the case of “N-(2-{4-[5-methoxy-2-(4-methoxy-3,5-dimethyl pyridin-2-yl methylsulfinyl)benzimidazole-1-sulfonyl]-phenoxy}ethyl)-N,N,N-trimethyl ammonium trifluoromethanesulfonate and N-(2-{4-[6-methoxy-2-(4-methoxy-3,5-dimethyl pyridin-2-yl methylsulfinyl)benzimidazole-1-sulfonyl]-phenoxy}ethyl)-N,N,N-trimethyl ammonium trifluoromethanesulfonate [Example 73]”, the “% inhibition of gastric acid secretion” value [1, 6] is reported as 21.8 ± 11.7%.

For “1-[4-[3-(morpholin-4-yl) propoxy]benzenesulfonyl]-5-methoxy-2-[[(3,5-dimethyl-4-methoxy-2-pyridyl)methyl]sulfinyl]-1H-benzimidazole and 1-[4-[3-(morpholin-4-yl) propoxy]benzenesulfonyl]-6-methoxy-2-[[(3.5-dimethyl-4-methoxy-2-pyridyl)methyl]sulfinyl]-1H-benzimidazole [Example 37]”, the “Relative concentration” value [2, 7] was 1.67 arbitrary unit, the “Relative concentration” value [2, 8] was 14.36 arbitrary unit and the “Relative concentration” value [2, 9] was 3.5 arbitrary unit. The “Relative concentration” value [2, 10] was 1.88 arbitrary unit, the “Relative concentration” value [2, 11] was 1.88 arbitrary unit and the “Relative concentration” value [2, 12] was 1.5 arbitrary unit. For the same compound, the “Relative concentration” value [2, 13] was 1.5 arbitrary unit, the “Relative concentration” value [2, 14] was 1 arbitrary unit and the “Relative concentration” value [2, 15] was 1 arbitrary unit. The “Relative concentration” value [2, 16] was 0.7 arbitrary unit, the “Relative concentration” value [2, 17] was 0.7 arbitrary unit and the “Relative concentration” value [2, 18] was 0.7 arbitrary unit. For the same compound, the “Relative concentration” value [2, 19] was 0.4 arbitrary unit, the “Relative concentration” value [2, 20] was 0.2 arbitrary unit and the “Relative concentration” value [2, 21] was 0.1 arbitrary unit. The “Relative concentration” value ([2]; 390 min after oral administration, 2 mg/kg) was 0.1 arbitrary unit.

In the case of `Cc1c(OCC(F)(F)F)ccnc1C[S+]([O-])c1nc2ccccc2n1S(=O)(=O)c1ccc(OCC(N)=O)cc1` (stereo not shown) [Example 54], the “% inhibition of gastric acid secretion” value [1, 5] is reported as 46.9% and the “% inhibition of gastric acid secretion” value ([1]; between 4-7 hr after oral administration, listed as 2-(4-{[2-({[3-Methyl-4-(2,2,2-trifluoroethoxy)-2-pyridyl]methyl}sulfinyl) benzim)) is reported as 46.9%.
